Earlier results on one compound are cited in US10966913B2, “Cosmetic use of spiculisporic acid as a deodorant active agent” (L'OREAL, priority 2014, dated 2021).

For the series the following is noted: room temperature.

As for `CCCCCCCCCCC(C(=O)O)C1(C(=O)O)CCC(=O)O1` (stereo not drawn) [spiculisporic acid, 4,5-dicarboxy-4-pentadecanolide], the solubility in ethanol entry was “soluble”, the “solubility in fatty substances” value was “insoluble” and the solubility in water result is listed as “insoluble”.
